For orientation: IC50 means the midpoint of a concentration-inhibition curve. As usually defined, the Papp is the rate of passage across a membrane or cell layer, normalised by area and donor concentration. Usually clearance stands for a measure of how efficiently the substance is removed, as volume per time. High values mean efficient removal, low ones inefficient removal. What is called Tmax is the time from dosing to the highest level. For orientation: AUC means concentration integrated over time. The bioavailability is dose-corrected exposure relative to a reference, in per cent. A lower bioavailability goes with poor availability. For orientation: Cmax means the peak of the concentration-time curve. Broadly, the efflux ratio is a quotient of directional permeabilities that is used to spot active efflux.

The source of these data is ChEMBL document CHEMBL3124816, “Preparation and optimization of new 4-(2-(indolin-1-yl)-2-oxoethyl)-2-morpholinothiazole-5-carboxylic acid and amide derivatives as potent and selective PI3Kβ inhibitors” (Bioorg Med Chem Lett, 2014).

Data set [1] concerns the target T1, Phosphatidylinositol 4,5-bisphosphate 3-kinase catalytic subunit beta isoform (Homo sapiens, UniProt P42338). Put plainly: Inhibition of PI3Kbeta in human PTEN-deficient PC3 cells assessed as Akt phosphorylation at S473. The class given is cell-based, PC-3.
Data set [2] has as its target T1, Phosphatidylinositol 4,5-bisphosphate 3-kinase catalytic subunit beta isoform. The data set is described as follows: Inhibition of human PI3Kbeta after 15 mins.
Data set [3] concerns the target Phosphatidylinositol 4,5-bisphosphate 3-kinase catalytic subunit gamma isoform (Homo sapiens, UniProt P48736). The data set is described as follows: Inhibition of human PI3Kgamma after 15 mins.
For data set [4], the target named is Phosphatidylinositol 4,5-bisphosphate 3-kinase catalytic subunit alpha isoform (Homo sapiens, UniProt P42336). Put plainly: Inhibition of human PI3Kalpha after 15 mins.
In data set [5] the test system is Liver microsome. Put plainly: (§1) Drug metabolism in human liver microsomes assessed as compound lability. In kind it is ADME. The note with it: microsomes. (In general: Liver microsomes are a subcellular fraction often used to study metabolism.)
Data set [6] concerns the target T2, Phosphatidylinositol 4,5-bisphosphate 3-kinase catalytic subunit delta isoform (Homo sapiens, UniProt O00329).
T2 sequence (O00329 whole entry): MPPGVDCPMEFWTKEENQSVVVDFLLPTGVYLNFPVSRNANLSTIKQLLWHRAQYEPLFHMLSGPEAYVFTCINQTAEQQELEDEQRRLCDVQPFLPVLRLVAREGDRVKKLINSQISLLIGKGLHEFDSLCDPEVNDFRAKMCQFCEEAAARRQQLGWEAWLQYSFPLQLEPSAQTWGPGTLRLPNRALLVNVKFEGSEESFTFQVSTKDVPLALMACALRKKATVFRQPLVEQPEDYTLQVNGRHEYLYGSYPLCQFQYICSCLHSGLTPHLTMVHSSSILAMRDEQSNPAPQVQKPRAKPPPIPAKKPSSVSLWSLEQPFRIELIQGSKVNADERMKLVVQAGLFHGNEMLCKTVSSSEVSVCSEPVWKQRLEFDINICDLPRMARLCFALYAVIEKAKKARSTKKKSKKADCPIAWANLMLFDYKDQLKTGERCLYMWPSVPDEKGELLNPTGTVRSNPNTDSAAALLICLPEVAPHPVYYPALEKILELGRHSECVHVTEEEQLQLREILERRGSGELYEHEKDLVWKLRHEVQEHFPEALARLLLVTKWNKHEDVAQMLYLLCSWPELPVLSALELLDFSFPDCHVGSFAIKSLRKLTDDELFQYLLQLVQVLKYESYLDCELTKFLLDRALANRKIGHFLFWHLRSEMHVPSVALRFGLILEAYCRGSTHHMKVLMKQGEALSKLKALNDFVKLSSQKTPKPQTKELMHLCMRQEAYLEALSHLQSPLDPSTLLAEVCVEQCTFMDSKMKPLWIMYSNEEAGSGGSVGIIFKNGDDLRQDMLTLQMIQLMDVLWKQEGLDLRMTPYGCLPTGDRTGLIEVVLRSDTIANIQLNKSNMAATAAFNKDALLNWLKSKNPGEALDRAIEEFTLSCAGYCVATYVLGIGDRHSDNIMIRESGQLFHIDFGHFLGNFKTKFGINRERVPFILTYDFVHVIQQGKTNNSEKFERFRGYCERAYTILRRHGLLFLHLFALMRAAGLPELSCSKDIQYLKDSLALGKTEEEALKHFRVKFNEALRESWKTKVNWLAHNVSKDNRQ
The data set is described as follows: Inhibition of human PI3Kdelta after 15 mins.

The nature of data set [7]: Drug metabolism in mouse liver microsomes assessed as compound lability. The class given is ADME, Microsome. The note with it: for Drug metabolism: microsomes; for metabolised: liver microsomes, read-out: Drug metabolism.
In data set [8] the target is Cytochrome P450 3A4 (Homo sapiens, UniProt P08684). The data set is described as follows: Inhibition of human recombinant CYP3A4.
Data set [9] relates to Caco-2. Put plainly: (§2) Apparent permeability of the compound in human Caco2 cells. In kind it is ADME, cell-based.
A short description of data set [10]: Thermodynamic solubility of the compound in 50 mM Phosphate buffer at pH 7.4 after 16 hrs by HPLC analysis. In kind it is physicochemical. To be noted: for solubility thermodynamic at 16 h: phosphate buffer, pH 7.4, read-out: Therm_solubility.
Data set [11] can be described thus: Clearance in Sprague-Dawley rat at 3 mg/kg, iv. In kind it is ADME, organism-based. Also noted: dose 3 mg/kg, route intravenous. To be noted: in vivo.
Data set [12] can be described thus: Terminal elimination half life in Sprague-Dawley rat at 3 mg/kg, iv. The class given is ADME, organism-based. Also noted: dose 3 mg/kg, route intravenous. To be noted: in vivo, read-out: beta t1/2 (converted).
The nature of data set [13]: Tmax in Sprague-Dawley rat at 10 mg/kg, po. Also noted: dose 10 mg/kg, route oral. The note with it: in vivo. The class given is ADME, organism-based.
Data set [14] can be described thus: AUC in Sprague-Dawley rat at 10 mg/kg, po. The class given is ADME, organism-based. Also noted: dose 10 mg/kg, route oral. To be noted: plasma.
Data set [15] in a line: Volume of distribution at steady state in Sprague-Dawley rat at 3 mg/kg, iv. The class given is ADME, organism-based. Also noted: dose 3 mg/kg, route intravenous. The note with it: in vivo, read-out: Vdss.
A short description of data set [16]: Plasma concentration in SCID mouse harboring human PTEN-deficient PC3 cells at 150 mg/kg, po after 7 hrs. The class given is ADME, organism-based, PC-3. Also noted: dose 150 mg/kg, route oral.
A short description of data set [17]: Plasma protein binding in mouse. The class given is ADME, organism-based. The note with it: read-out: PPB (converted).
A short description of data set [18]: Oral bioavailability in Sprague-Dawley rat at 10 mg/kg. In kind it is ADME, organism-based. The note with it: in vivo.
Data set [19] is described as follows: Terminal elimination half life in Sprague-Dawley rat at 10 mg/kg, po. The note with it: in vivo, read-out: beta t1/2 (converted). Also noted: dose 10 mg/kg, route oral. The class given is ADME, organism-based.
The nature of data set [20]: Cmax in Sprague-Dawley rat at 10 mg/kg, po. In kind it is ADME, organism-based. Also noted: dose 10 mg/kg, route oral. The note with it: in vivo.
Data set [21] is described as follows: Drug metabolism in rat liver microsomes assessed as compound lability. To be noted: read-out: Drug metabolism. In kind it is ADME.
The nature of data set [22]: Plasma concentration in SCID mouse harboring human PTEN-deficient PC3 cells at 150 mg/kg, po after 16 hrs. In kind it is ADME, organism-based, PC-3. Also noted: dose 150 mg/kg, route oral.
The nature of data set [23]: Plasma concentration in SCID mouse harboring human PTEN-deficient PC3 cells at 150 mg/kg, po after 1 hr. In kind it is ADME, organism-based, PC-3. Also noted: dose 150 mg/kg, route oral.
A short description of data set [24]: as §2. The class given is ADME, cell-based. To be noted: Caco-2.
Data set [25] concerns Mus musculus. The data set is described as follows: Inhibition of PI3Kbeta in SCID mouse harboring human PTEN-deficient PC3 cells assessed as Akt phosphorylation at S473 at 100 mg/kg, po after 1 hr. In kind it is functional, organism-based. Also noted: dose 100 mg/kg. To be noted: PC-3.
Data set [26] concerns Mus musculus. The data set is described as follows: Inhibition of PI3Kbeta in SCID mouse harboring human PTEN-deficient PC3 cells assessed as Akt phosphorylation at S473 at 100 mg/kg, po after 7 hrs. In kind it is functional, organism-based. Also noted: dose 100 mg/kg. The note with it: PC-3.
Data set [27] can be described thus: as §1. The class given is ADME. To be noted: liver microsomes, read-out: Drug metabolism.
A short description of data set [28]: Plasma concentration in SCID mouse harboring human PTEN-deficient PC3 cells at 100 mg/kg, po after 7 hrs. In kind it is ADME, organism-based, PC-3. Also noted: dose 100 mg/kg, route oral.
A short description of data set [29]: Plasma concentration in SCID mouse harboring human PTEN-deficient PC3 cells at 100 mg/kg, po after 16 hrs. The class given is ADME, organism-based, PC-3. Also noted: dose 100 mg/kg, route oral.
Data set [30] is described as follows: Plasma concentration in SCID mouse harboring human PTEN-deficient PC3 cells at 100 mg/kg, po after 1 hr. In kind it is ADME, organism-based, PC-3. Also noted: dose 100 mg/kg, route oral.
Data set [31] relates to Mus musculus. Put plainly: Inhibition of PI3Kbeta in SCID mouse harboring human PTEN-deficient PC3 cells assessed as Akt phosphorylation at S473 at 100 mg/kg, po after 16 hrs. In kind it is functional, organism-based. The note with it: PC-3. Also noted: dose 100 mg/kg.
Data set [32] in a line: Efflux ratio of permeability from basolateral to apical side over apical to basolateral side in human Caco2 cells. The note with it: Caco-2. The class given is ADME, cell-based. In general terms: Caco-2 monolayers are a common model of the intestinal barrier.

≈ marks a conversion by molar mass, not a printed value. Calls of active or inactive are those of the source. The calls are words filed in the database; no cut-off is given here.

T1 sequence (P42338 whole entry, canonical isoform): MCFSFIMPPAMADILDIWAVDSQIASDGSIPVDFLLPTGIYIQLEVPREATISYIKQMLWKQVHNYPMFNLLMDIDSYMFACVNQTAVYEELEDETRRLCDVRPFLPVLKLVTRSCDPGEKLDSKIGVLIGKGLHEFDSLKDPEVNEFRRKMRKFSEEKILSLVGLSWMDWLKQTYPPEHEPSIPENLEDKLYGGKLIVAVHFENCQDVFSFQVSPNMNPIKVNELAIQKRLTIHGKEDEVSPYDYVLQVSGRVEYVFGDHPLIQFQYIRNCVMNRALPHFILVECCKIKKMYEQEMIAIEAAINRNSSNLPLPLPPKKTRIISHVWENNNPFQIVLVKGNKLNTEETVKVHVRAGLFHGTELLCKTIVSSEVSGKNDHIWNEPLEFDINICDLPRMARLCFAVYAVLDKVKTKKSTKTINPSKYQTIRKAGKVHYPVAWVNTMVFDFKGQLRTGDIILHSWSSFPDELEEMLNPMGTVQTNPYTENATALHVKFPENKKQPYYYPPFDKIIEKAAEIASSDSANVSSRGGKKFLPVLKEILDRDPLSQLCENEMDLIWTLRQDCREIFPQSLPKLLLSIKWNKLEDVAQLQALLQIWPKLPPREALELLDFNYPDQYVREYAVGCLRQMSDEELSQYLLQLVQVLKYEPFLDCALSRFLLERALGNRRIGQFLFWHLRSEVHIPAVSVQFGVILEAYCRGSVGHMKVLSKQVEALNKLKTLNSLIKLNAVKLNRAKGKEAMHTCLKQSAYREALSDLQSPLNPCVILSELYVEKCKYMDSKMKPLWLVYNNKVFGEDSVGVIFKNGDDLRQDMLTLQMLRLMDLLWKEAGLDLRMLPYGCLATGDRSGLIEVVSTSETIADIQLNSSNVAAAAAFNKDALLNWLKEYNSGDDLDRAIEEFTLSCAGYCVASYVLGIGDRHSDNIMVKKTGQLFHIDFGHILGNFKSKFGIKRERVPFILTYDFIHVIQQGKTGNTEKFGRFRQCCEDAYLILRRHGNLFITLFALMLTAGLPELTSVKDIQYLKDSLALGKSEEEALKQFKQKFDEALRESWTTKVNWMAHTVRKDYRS
Chain of Phosphatidylinositol 4,5-bisphosphate 3-kinase catalytic subunit alpha isoform (P42336 whole entry, canonical isoform): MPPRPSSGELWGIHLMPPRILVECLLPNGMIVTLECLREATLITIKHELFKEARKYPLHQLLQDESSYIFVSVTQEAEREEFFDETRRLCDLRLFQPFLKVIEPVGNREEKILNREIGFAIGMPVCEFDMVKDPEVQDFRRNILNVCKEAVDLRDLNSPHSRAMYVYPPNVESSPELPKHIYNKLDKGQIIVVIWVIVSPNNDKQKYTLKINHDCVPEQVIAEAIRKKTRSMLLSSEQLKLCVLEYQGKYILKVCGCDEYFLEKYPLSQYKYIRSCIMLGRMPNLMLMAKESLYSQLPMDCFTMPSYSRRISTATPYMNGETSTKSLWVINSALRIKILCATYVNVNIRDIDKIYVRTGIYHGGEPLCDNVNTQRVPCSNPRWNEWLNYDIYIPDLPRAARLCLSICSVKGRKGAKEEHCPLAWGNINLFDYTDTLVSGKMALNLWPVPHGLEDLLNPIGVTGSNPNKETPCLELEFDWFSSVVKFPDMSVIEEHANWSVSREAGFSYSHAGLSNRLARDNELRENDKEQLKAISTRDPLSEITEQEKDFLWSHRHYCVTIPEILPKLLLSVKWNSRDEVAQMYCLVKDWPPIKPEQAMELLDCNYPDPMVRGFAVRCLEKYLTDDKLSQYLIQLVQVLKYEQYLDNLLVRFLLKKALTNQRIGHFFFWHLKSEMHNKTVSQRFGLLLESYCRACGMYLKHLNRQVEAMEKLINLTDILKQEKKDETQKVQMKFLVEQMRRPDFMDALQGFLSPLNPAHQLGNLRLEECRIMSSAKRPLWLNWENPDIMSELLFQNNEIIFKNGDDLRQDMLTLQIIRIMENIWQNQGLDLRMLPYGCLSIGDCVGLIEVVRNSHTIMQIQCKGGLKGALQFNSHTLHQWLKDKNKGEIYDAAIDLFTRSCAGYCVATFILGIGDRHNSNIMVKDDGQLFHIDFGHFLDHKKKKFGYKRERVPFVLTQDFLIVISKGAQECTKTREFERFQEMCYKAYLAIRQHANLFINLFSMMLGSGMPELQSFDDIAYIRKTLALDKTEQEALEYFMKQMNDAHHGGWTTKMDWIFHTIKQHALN
Chain of Cytochrome P450 3A4 (P08684 whole entry): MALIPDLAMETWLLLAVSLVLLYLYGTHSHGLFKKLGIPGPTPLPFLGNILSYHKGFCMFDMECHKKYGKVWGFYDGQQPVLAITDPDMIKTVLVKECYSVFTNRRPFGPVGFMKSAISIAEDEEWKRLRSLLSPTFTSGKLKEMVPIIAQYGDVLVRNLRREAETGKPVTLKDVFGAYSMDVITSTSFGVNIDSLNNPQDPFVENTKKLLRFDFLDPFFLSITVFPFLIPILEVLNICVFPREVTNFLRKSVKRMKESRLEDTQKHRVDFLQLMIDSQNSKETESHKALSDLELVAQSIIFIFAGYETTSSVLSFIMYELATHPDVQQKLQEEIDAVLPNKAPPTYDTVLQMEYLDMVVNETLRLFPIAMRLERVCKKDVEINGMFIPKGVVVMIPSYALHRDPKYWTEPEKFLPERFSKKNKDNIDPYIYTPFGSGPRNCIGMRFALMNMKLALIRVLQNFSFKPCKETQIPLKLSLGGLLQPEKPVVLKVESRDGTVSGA
Chain of Phosphatidylinositol 4,5-bisphosphate 3-kinase catalytic subunit gamma isoform (P48736 whole entry, canonical isoform): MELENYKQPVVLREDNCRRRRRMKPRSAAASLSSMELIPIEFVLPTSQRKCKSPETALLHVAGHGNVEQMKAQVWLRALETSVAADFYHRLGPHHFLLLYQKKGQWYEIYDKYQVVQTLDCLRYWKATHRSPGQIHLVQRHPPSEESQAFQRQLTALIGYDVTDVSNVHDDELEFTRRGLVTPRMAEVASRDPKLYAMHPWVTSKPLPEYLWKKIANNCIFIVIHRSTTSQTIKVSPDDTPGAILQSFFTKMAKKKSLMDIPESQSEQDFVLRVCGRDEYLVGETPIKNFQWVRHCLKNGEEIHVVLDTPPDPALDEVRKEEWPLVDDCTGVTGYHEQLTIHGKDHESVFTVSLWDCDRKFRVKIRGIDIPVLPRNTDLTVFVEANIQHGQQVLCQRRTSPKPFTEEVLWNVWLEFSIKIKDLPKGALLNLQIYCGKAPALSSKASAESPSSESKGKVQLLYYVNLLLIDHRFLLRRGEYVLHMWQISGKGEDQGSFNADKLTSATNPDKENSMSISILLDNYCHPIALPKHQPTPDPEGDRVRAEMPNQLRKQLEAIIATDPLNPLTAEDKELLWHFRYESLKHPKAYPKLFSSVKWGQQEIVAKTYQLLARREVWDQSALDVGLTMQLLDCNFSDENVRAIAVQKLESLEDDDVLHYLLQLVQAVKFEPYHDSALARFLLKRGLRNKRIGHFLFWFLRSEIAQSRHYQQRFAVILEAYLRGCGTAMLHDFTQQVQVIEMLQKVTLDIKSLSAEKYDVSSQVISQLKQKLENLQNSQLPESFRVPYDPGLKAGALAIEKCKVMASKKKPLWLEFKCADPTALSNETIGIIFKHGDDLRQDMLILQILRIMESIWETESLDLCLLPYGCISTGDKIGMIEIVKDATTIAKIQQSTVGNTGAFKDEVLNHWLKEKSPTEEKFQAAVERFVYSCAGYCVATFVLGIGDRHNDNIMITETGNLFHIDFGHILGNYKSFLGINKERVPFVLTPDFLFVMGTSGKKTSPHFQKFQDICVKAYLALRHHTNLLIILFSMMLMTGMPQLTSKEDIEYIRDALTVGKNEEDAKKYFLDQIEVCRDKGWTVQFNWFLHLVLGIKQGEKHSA

With `CC1Cc2c(Br)cccc2N1C(=O)Cc1nc(N2CCOCC2)sc1C(N)=O` (single isomer, unassigned; enantiomer 2), the IC50 in data set [1] is 17 nM; in data set [2], 58 nM; in data set [3], greater than 10 µM; in [4], 1320 nM; in data set [6] it was 430 nM; in data set [8], 40 µM. Besides, the Drug metabolism in data set [5] stood at 75%; in data set [7] it was 67%. Also, the Papp in data set [9] is recorded as 207 nm/s.
`CC1Cc2c(Br)cccc2N1C(=O)Cc1nc(N2CCOCC2)sc1C(=O)O` (single isomer, unassigned; enantiomer 1) showed a Therm_solubility in data set [10] (buffer, pH 7.4, 16 h, 16 h) of 3.795 mM. The IC50 amounted to 140 nM in data set [1]; 10 nM in [2]; 4.35 µM in data set [3]; 395 nM in data set [4]; 63 nM in data set [6]. For the same compound, the clearance in data set [11] is 4.17 mL/min/kg. Further, the half-life is 228 min in data set [12] and 378 min in data set [19]. Also, the Tmax in data set [13] was determined as 15 min. Moreover, in data set [14], the AUC was 41000 ng·h/mL. Further, the Vd in data set [15] was 0.65 L/kg. The compound also yielded a concentration at 7 h in data set [16] of 79 µM. Also, the fraction unbound in data set [17] was 0.015. Besides, in data set [18], the bioavailability is 99%. Further, in data set [20], the highest level (Cmax) was 15100 ng/mL. Also, in [7], the Drug metabolism is recorded as 17%. For the same compound, in data set [21], the metabolised came to 7%. Further, the concentration at 16 h in data set [22] was 3000 nM. For the same compound, the concentration at 1 h in data set [23] was determined as 181 µM. Also, in [24], the Papp is 0.5 ×10⁻⁶ cm/s.
As to `NC(=O)c1sc(N2CCOCC2)nc1CC(=O)N1CCc2cc(F)ccc21`, the solubility thermodynamic at 16 h in [10] was determined as 7 µM (≈ 2.73 µg/mL). Also, the IC50 was 15 nM in data set [1]; 22 nM in data set [2]; greater than 10 µM in [3]; 6970 nM in data set [4]; 134 nM in data set [6]; 40 µM in data set [8]. The inhibition result in data set [25], in [26] and in data set [31] was “Active” each time. Moreover, the metabolised in [27] amounted to 17%; in [7] it was 22%. This compound showed a concentration at 7 h in data set [28] of 40 nM. Also, the concentration at 16 h in [29] stood at 4 nM. In data set [30], this compound gave a concentration at 1 h of 310 nM. Further, the Papp in [24] came to 22.2 ×10⁻⁶ cm/s.
For `O=C(O)c1sc(N2CCOCC2)nc1CC(=O)N1CCc2cc(F)ccc21`, the solubility thermodynamic at 16 h in data set [10] was found to be 5110 µM (≈ 2000 µg/mL). Moreover, the IC50 was 1730 nM in data set [1]; 25 nM in data set [2]; greater than 10 µM in [3]; greater than 10000 nM in data set [4]; 64 nM in [6]; 40 µM in [8]. In [32], the efflux ratio is 13. Besides, the metabolised in [27] and in [7] was 1% throughout. Besides, the apparent permeability coefficient (Papp) in data set [24] is 0.4 ×10⁻⁶ cm/s.
